Assay results as given in paper PMC5493200 (ACS infectious diseases, 2016).

How the values were obtained:
M. tuberculosis H37Rv = experiment: microbe, parasite or virus in culture; assay type: cell-based, Mycobacterium tuberculosis; details: for H37Rv MIC: Tables 1-4 and text; for MIC (H37Rv): Table 5
[1] = tested on: M. tuberculosis H37Rv Rv1258c knockout (KO); experiment: microbe, parasite or virus in culture; assay type: cell-based; details: Tables 1-4 and text; 7 days, 7H9 broth
[2] = biological target: Purified 70S M. smegmatis bacterial ribosomes (Mycolicibacterium smegmatis, UniProt A0QSG6); experiment: Ribosomal translation inhibition; assay type: biochemical; details: inhibits luciferase activity by 50%
Rv1258c efflux pump = details: for Efflux Ratio: H37Rv MIC / Rv1258c KO MIC
[3] = heteroaryl ring of side chain; ref not given; cited from earlier work
M. bovis BCG = assay type: cell-based; details: average of 2–3 replicates, standard deviation in parenthesis
[4] = Microsomal stability, human; assay type: in vitro ADME; details: human liver microsomes
[5] = Microsomal stability, mouse; assay type: in vitro ADME; details: mouse liver microsomes
Protein binding, human = assay type: in vitro ADME
Protein binding, mouse = assay type: in vitro ADME
HepG2 cells = experiment: Mammalian cytotoxicity; assay type: cell-based
M. tuberculosis Erdman = experiment: Mouse model of acute tuberculosis infection; assay type: in vivo; details: 9 days, vs control
[6] = Maximum tolerated dose / tolerability; assay type: in vivo, mouse; details: mice; for Maximum tolerated dose (MTD): subcutaneous
[7] = second new trial (Figure 3C), 200 mg/kg BID, subcutaneous
[8] = first new trial (Figure 3B), 200 mg/kg BID, subcutaneous

Sequence of Purified 70S M. smegmatis bacterial ribosomes (A0QSG6 whole entry): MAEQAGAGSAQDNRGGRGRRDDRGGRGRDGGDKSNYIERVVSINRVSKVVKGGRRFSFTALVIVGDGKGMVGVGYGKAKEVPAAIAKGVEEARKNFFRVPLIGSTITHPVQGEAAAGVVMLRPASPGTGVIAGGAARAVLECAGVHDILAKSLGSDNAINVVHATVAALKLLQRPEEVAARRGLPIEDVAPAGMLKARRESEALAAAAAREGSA

Structure (SMILES) | H37Rv MIC (M. tuberculosis H37Rv) | Rv1258c KO MIC [1] | Ribosome IC50 [2] | Efflux Ratio (Rv1258c efflux pump) | pKa [3] | MIC (H37Rv) (M. tuberculosis H37Rv) | Post Antibiotic Effect (M. bovis BCG) | Microsomal stability t1/2 human [4] | Microsomal stability t1/2 mouse [5] | Protein binding human (Protein binding, human) | Protein binding mouse (Protein binding, mouse) | Cytotoxicity (HepG2) (HepG2 cells) | Reduction of bacterial load in lungs (M. tuberculosis Erdman; [7]) | Maximum tolerated dose (MTD) [6] | Fold change of MIC between H37Rv and Rv1258c KO (efflux) (Rv1258c efflux pump) | Reduction of bacterial load in lungs (M. tuberculosis Erdman; second new trial (Figure 3C), 100 mg/kg) | Well tolerated dosing ([6]; efficacy trial dosing (Table S3)) | Reduction of bacterial load in lungs (M. tuberculosis Erdman; [8])
CN[C@@H]1[C@H](O)[C@H](NC)[C@H]2O[C@]3(O)[C@H](O[C@@H]2[C@H]1O)O[C@H](C)C[C@H]3NC(=O)Cc1ncc[nH]1.Cl.Cl.Cl [Compound 21, 3′-Dihydro-3′-deoxy-3′(R)-(1H-imidazol-2-yl)acetylamino spectinomycin trihydrochloride] | 12.5 µg/mL | 6.3 µg/mL | 0.56 µg/mL | 2 | 7.0 |  |  |  |  |  |  |  |  |  |  |  |  | 
CN[C@@H]1[C@H](O)[C@H](NC)[C@H]2O[C@]3(O)[C@H](O[C@@H]2[C@H]1O)O[C@H](C)C[C@H]3NC(=O)Cc1ccc(O)cn1.Cl.Cl.Cl [Compound 39, 3′-Dihydro-3′-deoxy-3′(R)-(5-hydroxypyridin-2-yl)acetylamino spectinomycin trihydrochloride] | 1.6 µg/mL | 3.1 µg/mL | 0.84 µg/mL | 0.5 |  | 1.6 µg/mL | 20 (18) h | 7.4 h | 13.4 h | 35.1% | 30.7% | >400 µg/mL | 1.5 log | > 400 mg/kg |  |  |  | 
Br.Br.Br.CNC1C(O)C(NC)C2OC3(O)C(NC(=O)Cc4nc5ccccc5s4)CC(C)OC3OC2C1O [Compound 25, 3′-Dihydro-3′-deoxy-3′(R)-(benzo[d]thiazol-2-yl)acetylamino spectinomycin trihydrobroride] | 1.6 µg/mL | 0.8 µg/mL | 1.09 µg/mL | 2 |  |  |  |  |  |  |  |  |  | mild toxicity noted when dosage exceeded 100 mg/kg |  |  |  | 
CNC1C(O)C(NC)C2OC3(O)C(NC(=O)Cc4cc5ccccc5[nH]4)CC(C)OC3OC2C1O [Compound 28, 3′-Dihydro-3′-deoxy-3′(R)-(1H-indol-2-yl)acetylamino spectinomycin] | 25 µg/mL | 0.8 µg/mL | 0.77 µg/mL | 32 |  |  |  |  |  |  |  |  |  |  | 32 fold |  |  | 
CN[C@@H]1[C@H](O)[C@H](NC)[C@H]2O[C@]3(O)[C@H](O[C@@H]2[C@H]1O)O[C@H](C)C[C@H]3NC(=O)Cc1ccc(OC(F)(F)F)cn1.Cl.Cl.Cl [Compound 41, 3′-Dihydro-3′-deoxy-3′(R)-(5-(trifluoromethoxy)pyridin-2-yl)acetylamino spectinomycin trihydrochloride] | 3.1 µg/mL | 0.8 µg/mL | 0.96 µg/mL | 4 |  | 3.1 µg/mL | 61 (17) h | 22.4 h | 27.0 h | 51.4% | 58.4% | >400 µg/mL |  |  |  | 1.1 log | 100 mg/kg | 
Br.Br.Br.CNC1C(O)C(NC)C2OC3(O)C(OC(C)C[C@H]3NC(=O)Cc3nc4ccccc4n3C)OC2C1O (stereo partly drawn) [Compound 26, 3′-Dihydro-3′-deoxy-3′(R)-(1-methyl-1H-benzo[d]imidazol-2-yl)acetylamino spectinomycin trihydrobroride] | 6.3 µg/mL | 3.1 µg/mL | 0.26 µg/mL | 2 |  |  |  |  |  |  |  |  |  |  |  |  |  | 
Br.Br.Br.CNC1C(O)C(NC)C2OC3(O)C(NC(=O)Cc4nc5ccccc5o4)CC(C)OC3OC2C1O [Compound 24, 3′-Dihydro-3′-deoxy-3′(R)-(benzo[d]oxazol-2-yl)acetylamino spectinomycin trihydrobroride] | 6.3 µg/mL | 3.1 µg/mL | 0.61 µg/mL | 2 |  |  |  |  |  |  |  |  |  |  |  |  |  | 
Br.Br.Br.CN[C@@H]1[C@H](O)[C@H](NC)[C@H]2O[C@]3(O)[C@H](O[C@@H]2[C@H]1O)O[C@H](C)C[C@H]3NC(=O)Cc1nccc(Cl)c1C [Compound 46, 3′-Dihydro-3′-deoxy-3′(R)-(4-chloro-3-methylpyridin-2-yl)acetylamino spectinomycin trihydrobromide] | 3.1 µg/mL | 1.6 µg/mL | 0.59 µg/mL | 2 |  | 3.1 µg/mL |  | >50 h | >50 h | 46.6% | 36.4% | >400 µg/mL |  |  |  |  |  | least reduction in bacterial loads
Br.Br.Br.CN[C@@H]1[C@H](O)[C@H](NC)[C@H]2O[C@]3(O)[C@H](O[C@@H]2[C@H]1O)O[C@H](C)C[C@H]3NC(=O)Cc1nc2ccccc2[nH]1 [Compound 27, 3′-Dihydro-3′-deoxy-3′(R)-(1H-benzo[d]imidazol-2-yl)acetylamino spectinomycin trihydrobroride] | 1.6 µg/mL | 1.6 µg/mL | 0.26 µg/mL | 1 | 5.6 | 1.6 µg/mL | 137 h | >50 h | >50 h | 26.3% | 12.1% | >400 µg/mL |  |  |  |  |  | 1.6 logs
Br.Br.Br.CNC1C(O)C(NC)C2OC3(O)C(NC(=O)Cc4ccc(Br)cn4)CC(C)OC3OC2C1O [Compound 43, 3′-Dihydro-3′-deoxy-3′(R)-(5-bromopyridin-2-yl)acetylamino spectinomycin trihydrobromide] | 3.1 µg/mL | 1.6 µg/mL | 0.42 µg/mL | 2 |  |  |  |  |  |  |  |  |  |  |  |  |  | 
Br.Br.Br.CN[C@@H]1[C@H](O)[C@H](NC)[C@H]2O[C@]3(O)[C@H](O[C@@H]2[C@H]1O)O[C@H](C)C[C@H]3NC(=O)Cc1ccc(OC)cn1 [Compound 38, 3′-Dihydro-3′-deoxy-3′(R)-(5-methoxypyridin-2-yl)acetylamino spectinomycin trihydrobromide] | 3.1 µg/mL | 6.3 µg/mL | 0.39 µg/mL | 0.5 |  | 3.1 µg/mL | 56 (12) h | 3.4 h | 4.8 h | 51.4% | 57.3% | >400 µg/mL | 1.6 log |  |  |  |  | 
Br.Br.Br.CNC1C(O)C(NC)C2OC3(O)C(OC(C)C[C@H]3NC(=O)Cc3cccc(C)n3)OC2C1O (stereo partly drawn) [Compound 32, 3′-Dihydro-3′-deoxy-3′(R)-(6-methylpyridin-2-yl)acetylamino spectinomycin trihydrobromide] | 25 µg/mL | 6.3 µg/mL | 0.50 µg/mL | 4 |  |  |  |  |  |  |  |  |  |  |  |  |  | 
CNC1C(O)C(NC)C2OC3(O)C(NC(=O)Nc4ccccn4)CC(C)OC3OC2C1O.Cl.Cl [Compound 10, 3′-Dihydro-3′-deoxy-3′(R)-(pyridin-2-yl)aminocarbonylamino spectinomycin dihydrochloride] | 12.5 µg/mL | 3.1 µg/mL | 2.24 µg/mL | 4 |  |  |  |  |  |  |  |  |  |  |  |  |  | 
Br.Br.Br.CNC1C(O)C(NC)C2OC3(O)C(NC(=O)Cc4cc(C(C)C)ccn4)CC(C)OC3OC2C1O [Compound 33, 3′-Dihydro-3′-deoxy-3′(R)-(4-isopropylpyridin-2-yl)acetylamino spectinomycin trihydrobromide] | 6.3 µg/mL | 1.6 µg/mL | 0.36 µg/mL | 4 |  |  |  |  |  |  |  |  |  |  | 4 fold |  |  | 
Br.Br.Br.CN[C@@H]1[C@H](O)[C@H](NC)[C@H]2O[C@]3(O)[C@H](O[C@@H]2[C@H]1O)O[C@H](C)C[C@H]3NC(=O)Cc1cc(Cl)c(F)cn1 [Compound 49, 3′-Dihydro-3′-deoxy-3′(R)-(4-chloro-5-fluoropyridin-2-yl)acetylamino spectinomycin trihydrobromide] | 0.8 µg/mL | 0.8 µg/mL | 0.22 µg/mL |  |  | 0.8 µg/mL | 116 (19) h | >50 h | >50 h | 56.3% | 39.3% | >400 µg/mL |  |  |  |  |  | 
